According to the NIST ThermoML archive (doi:10.1021/je700179q):
± gives the expanded uncertainty stated by the source.

Conditions: Crystal; visual observation

## c1ccc2c(c1)Cc1ccccc1-2 [fluorene]
  Normal melting temperature: 116.00 ± 1 °C
